Measurements: publication PMC2950867 (Journal of pharmacological and toxicological methods, 2010)
Like-named read-outs stand apart in the source and are kept apart here.

Key:
Caco-2 cells [1] = assay type: cell-based, human; conditions: for IC50: read-out: IC50 MTT 24-hr, Caco-2 confluent monolayers, 24-hr single dosing
Caco-2 cells [2] = assay type: cell-based, human; conditions: read-out: IC50 TMER 24-hr; Caco-2 monolayers on PET inserts, 24-hr single dosing
[3] = ref Horton et al., cited from earlier work; for pKa of the α-amino group: 25 °C, free amino acid

Compound | IC50 (Caco-2 cells [1]) [µM] | IC50 (Caco-2 cells [2]) [µM] | pKa of the α-amino group [3] | further results
[Cl][Mn][Cl] [manganese chloride] | 9600 | 3080 | – | –
NC(=O)C[C@H](N)C(=O)O [asparagine] | – | – | 8.7 | –
N[C@@H](Cc1ccc(O)cc1)C(=O)O [tyrosine] | – | – | – | hydropathy (tendency to prefer a hydrophobic environment) [3]: 0.019 kcal/mol
O=S(=O)([O-])[O-].[Cu+2] [cupric sulfate] | 1570 | 1800 | – | –
mercury chloride | – | 90 | – | –
NCC(=O)O [glycine] | – | – | 9.8 | hydropathy (tendency to prefer a hydrophobic environment) [3]: 0.16 kcal/mol
[Cl][Ni][Cl] [nickel chloride] | 968 | 8400 | – | MTT (cell viability) (Caco-2 cells [1]; 24-hr single exposure at the 24-hr TMER IC50 concentration): 16% of control
[Cl][Cd][Cl] [cadmium chloride] | 109 | 49 | – | –
N[C@@H](CS)C(=O)O [cysteine] | – | – | 10.7 | –
